Measurements published in ChEMBL document CHEMBL1201862, “PubChem BioAssay data set” (2004).
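Tested at 5 concentrations; 48 h exposure; 96-well plates; endpoints linearly interpolated, else capped at highest concentration. Abbreviation: GI50, concentration required for 50% inhibition of growth.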 Activity calls are given as the source filed them. Cut-off read from the data, not from the text of the source: active = GI50 up to about 1.1 µM and inactive = higher.

Key:
Test in all cases: NCI anticancer screen, dose series, 48 h
786-0 = tested on: 786-0
A549 = tested on: A549
ACHN = tested on: ACHN
CCRF-CEM = tested on: CCRF-CEM
COLO 205 = tested on: COLO 205
DLD-1 = tested on: DLD-1
DMS-114 = tested on: DMS-114
DMS-273 = tested on: DMS-273
EKVX = tested on: EKVX
HCC 2998 = tested on: HCC 2998
HCT-116 = tested on: HCT-116
HCT-15 = tested on: HCT-15
HL-60 = tested on: HL-60
HOP-62 = tested on: HOP-62
HOP-92 = tested on: HOP-92
HT-29 = tested on: HT-29
IGROV-1 = tested on: IGROV-1
K562 = tested on: K562
KM-20L2 = tested on: KM-20L2
KM12 = tested on: KM12
LXFL 529 = tested on: LXFL 529
M14 = tested on: M14
M19-MEL = tested on: M19-MEL
MOLT-4 = tested on: MOLT-4
Malme-3M = tested on: Malme-3M
NCI-H23 = tested on: NCI-H23
NCI-H460 = tested on: NCI-H460
NCI-H522 = tested on: NCI-H522
OVCAR-3 = tested on: OVCAR-3
OVCAR-4 = tested on: OVCAR-4
OVCAR-5 = tested on: OVCAR-5
OVCAR-8 = tested on: OVCAR-8
RPMI-8226 = tested on: RPMI-8226
RXF 393 = tested on: RXF 393
SF-268 = tested on: SF-268
SF-295 = tested on: SF-295
SF-539 = tested on: SF-539
SK-MEL-28 = tested on: SK-MEL-28
SK-MEL-2 = tested on: SK-MEL-2
SK-MEL-5 = tested on: SK-MEL-5
SN12C = tested on: SN12C
SNB-19 = tested on: SNB-19
SNB-75 = tested on: SNB-75
SNB-78 = tested on: SNB-78
SW-620 = tested on: SW-620
TK-10 = tested on: TK-10
U-251 = tested on: U-251
UACC-257 = tested on: UACC-257
UACC-62 = tested on: UACC-62
UO-31 = tested on: UO-31
XF498 = tested on: XF498

Measured: GI50

CC(C)(C)CC(C)(C)c1cc2c(O)c(c1)Cc1cc(C(C)(C)CC(C)(C)C)cc(c1O)Cc1cc(C(C)(C)CC(C)(C)C)cc(c1O)Cc1cc(C(C)(C)CC(C)(C)C)cc(c1O)Cc1cc(C(C)(C)CC(C)(C)C)cc(c1O)C2
> 100 µM: HCT-15
inactive: 786-0 > 100 µM | A549 > 100 µM | ACHN > 100 µM | CCRF-CEM > 100 µM | COLO 205 > 100 µM | DLD-1 > 100 µM | DMS-114 > 100 µM | DMS-273 > 100 µM | EKVX > 100 µM | HCC 2998 > 100 µM | HCT-116 > 100 µM | HL-60 > 100 µM | HOP-62 > 100 µM | HOP-92 > 100 µM | HT-29 > 100 µM | IGROV-1 > 100 µM | K562 > 100 µM | KM-20L2 > 100 µM | KM12 > 100 µM | LXFL 529 > 100 µM | M14 > 100 µM | M19-MEL > 100 µM | MOLT-4 > 100 µM | Malme-3M > 100 µM | NCI-H23 > 100 µM | NCI-H460 > 100 µM | NCI-H522 > 100 µM | OVCAR-3 > 100 µM | OVCAR-4 > 100 µM | OVCAR-5 > 100 µM | OVCAR-8 > 100 µM | RPMI-8226 > 100 µM | RXF 393 > 100 µM | SF-268 > 100 µM | SF-295 > 100 µM | SF-539 > 100 µM | SK-MEL-28 > 100 µM | SK-MEL-2 > 100 µM | SK-MEL-5 > 100 µM | SN12C > 100 µM | SNB-19 > 100 µM | SNB-75 > 100 µM | SNB-78 > 100 µM | SW-620 > 100 µM | TK-10 > 100 µM | U-251 > 100 µM | UACC-257 > 100 µM | UACC-62 > 100 µM | UO-31 > 100 µM | XF498 > 100 µM
